Data on three molecules can be found in patent US9447081B2, “Substituted pyrimidines as pharmaceuticals and insecticides” (SHENYANG SINOCHEM AGROCHEMICALS R&D CO., LTD., priority 2012, dated 2016).

Each structure is given as a SMILES string.

The subject of one assay is rice blast. In words: microbe, parasite or virus in culture. It is filed as cell-based.
In a further assay the test system is cucumber gray mold. In words: Fungicidal activity in vitro (96-well, High Through Put), cucumber gray mold. The class given is cell-based. The conditions noted are these: 25 mg/L, 24 hours.
For a further assay, the system named is cucumber downy mildew. Kind of assay: Protectant activity in vivo (whole plant), cucumber downy mildew. The method, then: (§1) The method is as followed: The whole plant is used in this test. The compound is dissolved in a proper solvent to get mother solution. The proper solvent is selected from acetone, methanol, DMF and so on according to their dissolving capability to the sample. […] The testing solution is sprayed to the host plant by a special plant sprayer. The plant is inoculated with fungus after 24 hours. According to the infecting characteristic of fungus, the plant is stored in a humidity chamber and then transferred into greenhouse after infection is finished. And the other plants are placed in greenhouse directly. The activity of compound is obtained by eyeballing after 7 days in common.

The test system of a further assay is corn rust. In words: Protectant activity in vivo (whole plant), corn rust. How it is done: as §1
The next assay concerns wheat powdery mildew. Kind of assay: Protectant activity in vivo (whole plant), wheat powdery mildew. The method, then:
as §1

For another assay, the system named is diamond back moth. In words: Insecticidal activity against diamond back moth (airbrush spray). The class given is in vivo. The conditions noted are these: mortality after 72 h. How it is done:
(§2) Compounds were dissolved in mixed solvent (acetone:methanol=1:1), and diluted to required concentration with water containing 0.1% of tween 80.
(§3) Diamond back moth, armyworm, Green Peach Aphid and carmine spider mite were used as targets and the method of spraying by airbrush was used for determination of insecticidal biassays.
The method of spraying by airbrush: The cabbage leaves were made into plates of 2 cm diameter by use of punch. A test solution (0.5 ml) was sprayed by airbrush at the pressure of 0.7 kg/cm^2 to both sides of every plate. 10 Second instar larvae were put into the petri-dishes after the leaf disc air-dried and 3 replicates were set for each treatment. Then the insects were maintained in observation room (25° C., 60˜70% R.H.). Scores were conducted and mortalities were calculated after 72 h.

Another assay deals with armyworm. In words: Insecticidal activity against armyworm (airbrush spray). It is filed as in vivo. The conditions noted are these: second instar larvae, mortality after 72 h. How it is done:
as §2, §3
The method of spraying by airbrush: The corn leaves were made into plates of 2 cm diameter by use of punch. A test solution (0.5 ml) was sprayed by airbrush at the pressure of 0.7 kg/cm^2 to both sides of every plate. 10 Second instar larvae were put into the petri-dishes after the leaf disc air-dried and 3 replicates were set for each treatment. Then the insects were maintained in observation room (25° C., 60˜70% R.H.). Scores were conducted and mortalities were calculated after 72 h.

A further assay concerns carmine spider mite. Kind of assay: Acaricidal activity against carmine spider mite (airbrush spray). The class given is in vivo. The conditions noted are these: Tetranychus cinnabarinus; 100 mg/L, adults, mortality after 72 hrs. How it is done:
as §2, §3
Method: Broadbean shoots with two true leaves in pot were taken, the healthy adults of carmine spider mite were inoculated to the leaves. The adults were counted and then sprayed with airbrush at the pressure of 0.7 kg/cm^2 and at dose of 0.5 ml. 3 replicates were set for each treatment. And then they were maintained in standard observation room. Scores were conducted and mortalities were calculated after 72 hrs.

Assay [1] has as its system Green peach aphids (Myzus Persicae Sulzer). Kind of assay: Activity against green peach aphid (airbrush foliar spray). Particulars: death rate after 48 h. The class given is in vivo. The method, then: as §2, §3
Method: Filter papers were put in culture dishes (Diameter=6 cm), and water was dripped on filter papers for preserving moisture. Green peach aphids (Myzus Persicae Sulzer) were maintained on cabbage. Leaves (Diameter=3 cm) of approximately 15-30 aphids were put in the culture dishes. Bioactivity tests were used the method of Airbrush Foliar Spray, pressure=10 psi (0.7 kg/cm2), spray volume=0.5 mL. The studies were conducted at three constant temperatures 25±1 C. in incubator cabinets with 60±5% RH. Survey the survival aphids after 48 h and calculate the death rates.

In assay [2] the test system is human bladder cancer cell line T24. Kind of assay: In vitro cell inhibition assay against human cancer cell T24. It is filed as cell-based. Particulars: 10 μM, incubation for one week, crystal violet. The method, then: The tested compounds are dissolved in DMSO and diluted to designed concentration with culture medium.
The of cell culture technology in vitro was selected to evaluate growth inhibition rate against human bladder cancer cell line T24. 1000 to 3000 cells were inoculated into 24-well plate, followed by addition of cell culture medium (1 mL) known for technicans in this field (culture medium is RMPI-1640), after cells were cultured in incubator (CO2 5%, 37° C.) for 24 hours, then the tested compounds with designed concentration were added to each well. […] After incubation for one week, the culture medium was removed, the plate wells were washed with cold PBS once, fixed with 1% formalin at room temperature for 10 minutes, and washed with cold PBS one more time, followed by stain with 0.1% crystal violet for 30 minutes. Crystal violet can be recycled. The stained cells were washed with deionized water gently, dried in the air and reserved, were then incubated for 4 h. The inhibition rate was calculated according to the left cells of each treatment and contrast.
The inhibition rate=the left cells of each treatment/the left cells of contrast×100%

Take `c1ccc2c(NCc3ccc4c(c3)OCO4)ncnc2c1` [CK13]: the inhibition (in general, the share of the control response that was lost under treatment) at 25 µg/mL with rice blast (Pyricularia oryzae, 24 h, read-out: inhibition rate against rice blast) was determined as 0%; in the assay with cucumber gray mold (read-out: inhibition rate against cucumber gray mold), 0%. The pest or weed control at 400 µg/mL with cucumber downy mildew (Cucumis sativus, 168 h, 400 mg/L, read-out: protectant activity against cucumber downy mildew) was 0%; in the assay on corn rust (Zea mays, 168 h, 400 mg/L, read-out: protectant activity against corn rust), 40%; with wheat powdery mildew (Triticum aestivum, 168 h, 400 mg/L, read-out: protectant activity against wheat powdery mildew), 0%. The pest or weed control at 100 µg/mL with corn rust (Zea mays, 168 h, 100 mg/L, read-out: protectant activity against corn rust) came out at 0%; with carmine spider mite, 0%; in [1] (Myzus persicae, foliar, 48 h, 100 mg/L, read-out: Insecticidal activity against peach aphid (control)) it was 0%. Besides, the pest or weed control at 600 µg/mL with diamond back moth (600 mg/L, read-out: control of the second instar larvae of diamond back moth) was determined as 0%; in the assay on armyworm (600 mg/L), 0%; in assay [1] (Myzus persicae, foliar, 48 h, 600 mg/L, read-out: Insecticidal activity against peach aphid (control)) it was 50%. Besides, the pest or weed control at 10 µg/mL in [1] (Myzus persicae, foliar, 48 h, 10 mg/L, read-out: Insecticidal activity against peach aphid) was determined as 0%.

Regarding `Cc1ncnc(NCCc2ccc3c(c2)OCO3)c1Cl` [Compound 5], the “inhibition rate against rice blast” value with rice blast (in vitro, 25 mg/L, 24 hours) is on record as 80%. The “protectant activity against cucumber downy mildew” value in the assay on cucumber downy mildew (12.5 mg/L), in the assay with cucumber downy mildew (25 mg/L), with cucumber downy mildew (50 mg/L), in the assay with cucumber downy mildew (100 mg/L) and in the assay with cucumber downy mildew (400 mg/L) was 100% throughout. Further, the “protectant activity against corn rust” value in the assay with corn rust (6.25 mg/L), in the assay on corn rust (25 mg/L), in the assay with corn rust (100 mg/L) and in the assay on corn rust (400 mg/L) was 100% throughout. The “protectant activity against wheat powdery mildew” value in the assay with wheat powdery mildew (6.25 mg/L) was found to be 75%; in the assay on wheat powdery mildew (25 mg/L), 85%; in the assay on wheat powdery mildew (100 mg/L), 100%; with wheat powdery mildew (400 mg/L), 100%. In assay [1] (10 mg/L), the “Insecticidal activity against peach aphid” value was 0%. Also, the “Insecticidal activity against peach aphid (control)” value in assay [1] (100 mg/L) is reported as 52%; in assay [1] (600 mg/L) it was 100%. In addition, in assay [2], the “inhibition rate against bladder cancer cell line T24” value turned out to be 100%.

As for `CCc1ncnc(NCCc2ccc3c(c2)OCO3)c1Cl` [Compound 6], in the assay on cucumber gray mold, the “inhibition rate against cucumber gray mold” value is given as 80%. In addition, the “protectant activity against corn rust” value with corn rust (6.25 mg/L) worked out at 90%; in the assay on corn rust (25 mg/L), 100%; in the assay on corn rust (100 mg/L) it was 100%; in the assay with corn rust (400 mg/L) it was 100%. The “protectant activity against wheat powdery mildew” value in the assay on wheat powdery mildew (6.25 mg/L) stood at 85%; in the assay on wheat powdery mildew (25 mg/L), 90%; in the assay on wheat powdery mildew (100 mg/L), 95%; in the assay on wheat powdery mildew (400 mg/L), 100%. Also, the “control of the second instar larvae of diamond back moth” value in the assay with diamond back moth (100 mg/L) is 90%; in the assay with diamond back moth (600 mg/L), 100%. Further, the “control of the armyworm” value in the assay on armyworm (100 mg/L) and with armyworm (600 mg/L) was 90% each time. In assay [1] (10 mg/L), the “Insecticidal activity against peach aphid” value came to 100%. Moreover, the “Insecticidal activity against peach aphid (control)” value in assay [1] (100 mg/L) and in [1] (600 mg/L) was 100% throughout. In addition, the “inhibition rate against bladder cancer cell line T24” value in assay [2] is on record as 100%.
